Measured values taken from patent US11028078B2 (The Johns Hopkins University, priority 2011, dated 2021).

Experiments:
HUVEC [1] = experiment: Filipin staining of intracellular cholesterol (NPC phenotype); type: cell-based, human; settings: 0.1 μM, 0.2 μM for 24 h in FIG. 14 legend
Description: Intracellular cholesterol was visualized using filipin staining and fluorescent images were captured under a confocal microscope.
(§1) We thus determined whether compound 248 shared the same mechanism with itraconazole. The intracellular cholesterol was detected using the cholesterol-binding fluorescent dye filipin. […] It is known that AMPK activation leads to mTOR inhibition.
Filipin staining. 2000 HUVECs were plated in chamber slide with 1 ml media and allowed to settle overnight. cCells were treated with 0.1 uM drug or DMSO for 14 hours. The the cells were fixed with 4% paraformaldehyde for 15 min. After washed, cells were incubated with 500 ul 50 ug/ml filipin solution for 1 hour in the dark. Then the cells were washed twice with PBS, mounted and covered with coverslip. The images were taken using confocal microscope under 360/460 nm.

CYP3A4 [2] = molecular target: T1, CYP3A4 (Homo sapiens, UniProt P08684); experiment: CYP3A4 enzyme assay (Vivid CYP3A4 Green Screening Kit); type: in vitro ADME; settings: % enzyme inhibition at 1 μM drug / % enzyme inhibition at 1 μM itraconazole
T1 construct: purchased ThermoFisher P2857; host or cells: baculosomes
T1 sequence (P08684 whole entry): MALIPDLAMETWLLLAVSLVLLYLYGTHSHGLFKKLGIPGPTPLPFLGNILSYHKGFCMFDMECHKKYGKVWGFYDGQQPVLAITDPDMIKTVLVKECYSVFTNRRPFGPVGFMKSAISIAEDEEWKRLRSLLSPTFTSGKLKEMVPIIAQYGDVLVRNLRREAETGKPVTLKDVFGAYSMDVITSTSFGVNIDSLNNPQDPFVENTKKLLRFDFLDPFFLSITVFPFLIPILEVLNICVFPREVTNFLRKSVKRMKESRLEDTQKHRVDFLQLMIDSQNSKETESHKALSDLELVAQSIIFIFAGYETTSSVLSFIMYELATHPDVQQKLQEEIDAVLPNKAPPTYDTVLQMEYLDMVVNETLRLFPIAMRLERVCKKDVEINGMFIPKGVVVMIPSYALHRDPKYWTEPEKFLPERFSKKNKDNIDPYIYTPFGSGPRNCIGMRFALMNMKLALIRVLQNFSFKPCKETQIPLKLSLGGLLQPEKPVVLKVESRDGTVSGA
Description: And CYP3A4 inhibition was initially determined using a cell-free fluorescence-based assay at a final concentration of 1 μM (Table 7).
CYP3A4 enzyme assay. CYP3A4 enzyme activity was tested using Vivid™ CYP3A4 Green Screening Kit (ThermoFisher, #P2857) using the manufacturer's protocol. Briefly, CYP3A4 baculosomes and drugs were incubated 10 min at 37° C. Then Vivid® Substrates were added and the fluorescence (ex/em:485/520) were read every 1 min for 60 minute.

CYP3A4 [3] = molecular target: T1, CYP3A4; experiment: as above; type: in vitro ADME
[4] = system: AMPKα, ACC1, mTOR, p70 S6 Kinase phosphorylation; experiment: Western blot of AMPK/mTOR signaling in HUVEC; type: cell-based, human; settings: 24 h
Description: Cell lysates were subjected to Western blot.
as §1
Western blot. […] Then cells were lysed using RIPA buffer and the protein concentration were measured and normalized. After electrophoresis and transfer onto 0.45 um nitrocellulose membranes, the membranes were bolted with 5% BSA for 1 h and then incubated overnight at 4° C. Secondary antibody was applied to each membrane for 1 hour. Bolts were imaged using Syngene PXi imaging system after adding chemiluminescent substrate. The following antibodies were used for the assay: AMPKα (1:1,000, cell signaling, #2532s), phosphor-AMPKα (1:1,000, cell signaling #2535s), ACC (1:1,000, cell signaling #3662s), phosphor-ACC (1:1,000, cell signaling, #3661s), mTOR (1:1,000, cell signaling, #2972S), phosphor-mTOR (1:1,000, cell signaling, #9234s), p70 S6 Kinase (1:1,000, senta cruz, #sc-8418), phosphor-p70 S6 Kinase (1:1,000, cell signaling, #3662s), anti-Rabbit IgG (1:10000, GE lifesciences, #NA934V).

HUVEC [5] = experiment: HUVEC proliferation assay ([3H]thymidine incorporation); type: cell-based, human; settings: Homo sapiens; HUVEC, 3H thymidine incorporation; in μM; read-out: Proliferation IC50
Summary of the method: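 Pooled HUVEC at passage eight or lower, grown in EGM-2 medium; proliferation measured by [3H]thymidine incorporation as in an earlier published protocol.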

VEGFR2 = VEGFR2 glycosylation in HUVEC (Western blot scoring); type: cell-based, human; settings: VEGFR2 hypoglycosylation score in HUVEC, 2 μM, 24 h; also: key: ++: robust; +: intermediate; −: absent
HUVEC tube formation = HUVEC tube formation assay on Matrigel; type: cell-based; settings: Homo sapiens, 20 h, read-out: inhibition of HUVEC tube formation (total tube length)
Gli1 transcript = experiment: Quantification of Gli1 transcript by TaqMan analysis in MB cells (Hh pathway); type: cell-based, mouse
Summary of the method: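 After drug exposure, total RNA extracted from MB cells, reverse transcribed, and Gli1 quantified by TaqMan qPCR with mouse Gli-1 and actin primer/probe sets. Values expressed as fold induction relative to control by the 2^−ΔΔCt method, normalized to actin.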

Structure (SMILES)	CYP3A4 Inhibition (compared to intracozanole at 1 μm) (CYP3A4 [2])	IC50 (HUVEC [5])	further results
CCC(C)n1ncn(-c2ccc(N3CCN(c4ccc(OC[C@@H]5CO[C@@](Cn6cnnn6)(c6ccc(Cl)cc6Cl)O5)cc4)CC3)cc2)c1=O (stereo partly drawn) [Compound 248, 4-(4=(4-(4-(((2S,4R)-2-((1H-tetrazol-1-yl)methyl)-2-(2,4-dichlorophenyl)-1,3-dioxolan-4-yl)methoxy)phenyl)piperazin-1-yl)phenyl)-1-sec-butyl-1H-1,2,4-triazol-5(4H)-one]	0.02	–	NPC phenotype (cholesterol accumulation in late endosome/lysosome) (HUVEC [1]): induced NPC phenotype; IC50 (CYP3A4 [3]; dose response, FIG. 12, read-out: CYP3A4 inhibition IC50): > 20 µM; phosphorylation of AMPKα at Thr172 ([4]; 0.01-1 μM, dose-dependent): increased; phosphorylation of acetyl CoA carboxylase 1 (ACC1) [4]: increased; phosphorylation of mTOR [4]: decrease; phosphorylation of p70 S6 Kinase (S6K) [4]: decrease
CCC(C)n1ncn(-c2ccc(N3CCN(c4ccc(OC[C@@H]5CO[C@@](CC)(c6ccc(Cl)cc6Cl)O5)cc4)CC3)cc2)c1=O (stereo partly drawn) [Compound 259, 1-sec-butyl-4-(4-(4-(4-(((2R,4R)-2-(2,4-dichlorophenyl)-2-ethyl-1,3-dioxolan-4-yl)methoxy)phenyl)piperazin-1-yl)phenyl)-1H-1,2,4-triazol-5(4H)-one]	No inhibition	0.314 µM	CYP3A4 inhibition in dose response assays (CYP3A4 [3]; FIG. 12, higher concentrations): totally lost CYP3A4 inhibition
CCC(C)n1ncn(-c2ccc(N3CCN(c4ccc(OC[C@@H]5COC(c6ccc(Cl)cc6Cl)O5)cc4)CC3)cc2)c1=O (stereo partly drawn) [Compound 262, 1-sec-butyl-4-(4-(4-(4-(((4R)-2-(2,4-dichlorophenyl)-1,3-dioxolan-4-yl)methoxy)phenyl)piperazin-1-yl)phenyl)-1H-1,2,4-triazol-5(4H)-one]	No inhibition	0.328 µM	–
CCC(C)n1ncn(-c2ccc(N3CCN(c4ccc(OC[C@@H]5CO[C@@](CN6CCOCC6)(c6ccc(Cl)cc6Cl)O5)cc4)CC3)cc2)c1=O (stereo partly drawn) [Compound 263, 1-(sec-butyl)-4-(4-(4-(4-(((2S,4R)-2-(2,4-dichlorophenyl)-2-(morpholinomethyl)-1,3-dioxolan-4-yl)methoxy)phenyl)piperazin-1-yl)phenyl)-1H-1,2,4-triazol-5(4H)-one]	0.20	1.18 µM	–
CCC(C)n1ncn(-c2ccc(N3CCN(c4ccc(OC[C@@H]5CO[C@@](CN(C)C)(c6ccc(Cl)cc6Cl)O5)cc4)CC3)cc2)c1=O (stereo partly drawn) [Compound 264, 1-(sec-butyl)-4-(4-(4-(4-(((2S,4R)-2-(2,4-dichlorophenyl)-2-((dimethylamino)methyl)-1,3-dioxolan-4-yl)methoxy)phenyl)piperazin-1-yl)phenyl)-1H-1,2,4-triazol-5(4H)-one]	No inhibition	1.4 µM	–
CCC(C)n1ncn(-c2ccc(N3CCN(c4ccc(OC[C@@H]5CO[C@@](CN6CCN(C)CC6)(c6ccc(Cl)cc6Cl)O5)cc4)CC3)cc2)c1=O (stereo partly drawn) [Compound 265, 1-(sec-butyl)-4-(4-(4-(4-(((2S,4R)-2-(2,4-dichlorophenyl)-2-((4-methylpiperazin-1-yl)methyl)-1,3-dioxolan-4-yl)methoxy)phenyl)piperazin-1-yl)phenyl)-1H-1,2,4-triazol-5(4H)-one]	0.21	0.396 µM	–
CCC(C)n1ncn(-c2ccc(N3CCN(c4ccc(OC[C@@H]5CO[C@@](CN6CCNCC6)(c6ccc(Cl)cc6Cl)O5)cc4)CC3)cc2)c1=O (stereo partly drawn) [Compound 266, 1-(sec-butyl)-4-(4-(4-(4-(((2S,4R)-2-(2,4-dichlorophenyl)-2-(piperazin-1-ylmethyl)-1,3-dioxolan-4-yl)methoxy)phenyl)piperazin-1-yl)phenyl)-1H-1,2,4-triazol-5(4H)-one]	1.09	0.608 µM	–
CCC(C)n1ncn(-c2ccc(N3CCN(c4ccc(OCC5COC(Cn6cncn6)(c6ccc(Cl)cc6Cl)O5)cc4)CC3)cc2)c1=O (stereo not shown) [Itraconazole, reference compound]	–	–	NPC phenotype (cholesterol accumulation in late endosome/lysosome) (HUVEC [1]): induce NPC phenotype; Glycosylation (2 μM dose) (VEGFR2): ++; inhibition at 5 µM (HUVEC tube formation): 45%; Gli I Inhibition (IC90 Prolif. dose) (Gli1 transcript; Gli1 transcript fold induction score, MB cells exposed 24 h at the IC90 for MB proliferation): ++ (≤0.15); inhibition of Gli1 transcript levels (Gli1 transcript; established MB cultures, FIG. 9B): Dose-dependent inhibition
